# Assay results from patent publication US10568876B2, “Tetrahydroisoquinoline derivatives useful as inhibitors of diacylglyceride O-acyltransferase 2” (Merck Sharp & Dohme Corp., priority 2014, dated 2020).
# Target: hDGAT2 (Homo sapiens (Human), UniProt Q96PD7)
# Experiment: DGAT2 Enzymatic Activity Assay
# Type: biochemical
# Details: hDGAT2 Sf-9 membrane prep; 25 μM diolein, 10 μM oleoyl-CoA; triolein product by LC/MS/MS; read-out: IC50 values for inhibition of DGAT2
# Procedure, shortened: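 Membranes from Sf-9 cells expressing untagged hDGAT2 (10 ng/μL) incubated at room temperature with 25 μM diolein and 10 μM oleoyl-CoA in 100 mM Tris pH 7.0, 20 mM MgCl2, 5% ethanol. Triolein product quantified by LC/MS/MS against spiked internal standard; IC50 from 4-parameter sigmoidal fit.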
# Chain of hDGAT2 (Q96PD7 whole entry): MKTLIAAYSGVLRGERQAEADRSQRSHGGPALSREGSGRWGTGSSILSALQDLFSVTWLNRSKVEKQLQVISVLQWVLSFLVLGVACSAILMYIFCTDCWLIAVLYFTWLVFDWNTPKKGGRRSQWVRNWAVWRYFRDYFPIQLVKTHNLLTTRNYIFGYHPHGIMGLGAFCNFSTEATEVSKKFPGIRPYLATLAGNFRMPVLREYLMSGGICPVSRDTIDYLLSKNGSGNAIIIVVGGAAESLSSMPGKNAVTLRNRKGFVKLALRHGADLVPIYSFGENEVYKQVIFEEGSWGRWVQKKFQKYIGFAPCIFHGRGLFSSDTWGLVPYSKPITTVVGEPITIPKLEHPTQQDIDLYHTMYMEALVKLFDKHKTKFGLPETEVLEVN
row,Structure (SMILES),IC50 [nM]
1,"COc1cccc(-c2ccc(CNC(=O)[C@@H]3C[C@H]3c3ccccc3)c3c2CCN(C(=O)Nc2ccccn2)C3)c1 (relative stereo) [Example 15, 5-(3-methoxyphenyl)-8-(((trans)-2-phenylcyclopropanecarboxamido)methyl)-N-(pyridin-2-yl)-3,4-dihydroisoquinoline-2(1H)-carboxamide]",3110
2,"COC(=O)c1cccc(-c2ccc(CNC(=O)C3CC3c3ccccc3)c3c2CCN(C(=O)c2ccccc2)C3)c1 (centres unmarked) [Example 138, methyl 3-(2-benzoyl-8-((2-phenylcyclopropanecarboxamido)methyl)-1,2,3,4-tetrahydroisoquinolin-5-yl)benzoate]",176
3,"Cc1noc(C2CC2C(=O)NCc2ccc(-c3cccc(OC(F)(F)F)c3)c3c2CN(CC(=O)NC2CCC2)CC3)n1 (centres unmarked) [Example 87, N-((2-(2-(cyclobutylamino)-2-oxoethyl)-5-(3-(trifluoromethoxy)phenyl)-1,2,3,4-tetrahydroisoquinolin-8-yl)methyl)-2-(3-methyl-1,2,4-oxadiazol-5-yl)cyclopropanecarboxamide]",4220
4,"Cc1cncc(-c2ccc(CNC(=O)[C@@H]3C[C@H]3c3ccccc3)c3c2CCN(C(=O)NC(C)(C)C)C3)c1 (relative stereo) [Example 8, N-(tert-butyl)-5-(5-methylpyridin-3-yl)-8-(((trans)-2-phenylcyclopropanecarboxamido)methyl)-3,4-dihydroisoquinoline-2(1H)-carboxamide]",82.3
5,"Cc1noc([C@@H]2C[C@H]2C(=O)NCc2ccc(-c3cccc(OC(F)(F)F)c3)c3c2CN(CC(=O)N2CCOCC2(C)C)CC3)n1 (relative stereo) [Example 91, (trans)-N-((2-(2-(3,3-dimethylmorpholino)-2-oxoethyl)-5-(3-(trifluoromethoxy)phenyl)-1,2,3,4-tetrahydroisoquinolin-8-yl)methyl)-2-(3-methyl-1,2,4-oxadiazol-5-yl)cyclopropanecarboxamide]",4300
6,"Cc1noc(C2CC2C(=O)NCc2ccc(-c3cccc(OC(F)(F)F)c3)c3c2CN(C(=O)NC2CCS(=O)(=O)C2)CC3)n1 (centres unmarked) [Example 60, N-(1,1-dioxidotetrahydrothiophen-3-yl)-8-((2-(3-methyl-1,2,4-oxadiazol-5-yl)cyclopropanecarboxamido)methyl)-5-(3-(trifluoromethoxy)phenyl)-3,4-dihydroisoquinoline-2(1H)-carboxamide]",463
7,CCn1ccnc1CN1CCc2c(-c3cccc(OC(F)(F)F)c3)ccc(CNC(=O)C3C[C@H]3c3nc(C)no3)c2C1 (some centres unmarked) [Example 102],456
8,"CC(C)(C)NC(=O)N1CCc2c(-c3cccc(-c4ncon4)c3)ccc(CNC(=O)C3C[C@H]3c3ccccc3)c2C1 (stereo partly drawn) [Example 51, 5-(3-(1,2,4-oxadiazol-3-yl)phenyl)-N-(tert-butyI)-8-(((trans)-2-phenylcyclopropanecarboxamido)methyl)-3,4-dihydroisoquinoline-2(1H)-carboxamide]",5.78
9,"COC(=O)c1cccc(-c2ccc(CNC(=O)C3CC3c3ccccc3)c3c2CCN(C(=O)C2CC2C)C3)c1 (centres unmarked) [Example 131, methyl 3-(2-(2-methylcyclopropanecarbonyl)-8-((2-phenylcyclopropanecarboxamido)methyl)-1,2,3,4-tetrahydroisoquinolin-5-yl)benzoate]",360
10,"CC(C)(C)NC(=O)N1CCc2c(-c3cccc(C(F)(F)F)c3)ccc(CNC(=O)[C@@H]3C[C@H]3c3ccccc3)c2C1 (relative stereo) [Example 14, N-(tert-butyl)-8-(((trans)-2-phenylcyclopropanecarboxamido)methyl)-5-(3-(trifluoromethyl)phenyl)-3,4-dihydroisoquinoline-2(1H)-carboxamide]",34
11,"CC(C)(C)NC(=O)N1CCc2c(-c3cccc(OC(F)(F)F)c3)ccc(CNC(=O)[C@H]3C[C@@H]3c3ccccc3)c2C1 (relative stereo) [Example 9, N-(tert-butyl)-8-(((trans)-2-phenylcyclopropanecarboxamido)methyl)-5-(3-(trifluoromethoxy)phenyl)-3,4-dihydroisoquinoline-2(1H)-carboxamide]",31

# More lines, in order of falling IC50, values ahead:
row,IC50 [nM],Structure (SMILES)
1,2780,"COc1cccc(-c2ccc(CNC(=O)C3CC3c3ccccc3)c3c2CCN(S(C)(=O)=O)C3)c1 (centres unmarked) [Example 89, N-((5-(3-methoxyphenyl)-2-(methylsulfonyl)-1,2,3,4-tetrahydroisoquinolin-8-yl)methyl)-2-phenylcyclopropanecarboxamide]"
2,2170,"CCOCC(=O)N1CCc2c(-c3cccc(C(=O)OC)c3)ccc(CNC(=O)C3CC3c3ccccc3)c2C1 (centres unmarked) [Example 136, methyl 3-(2-(2-ethoxyacetyl)-8-((2-phenylcyclopropanecarboxamido)methyl)-1,2,3,4-tetrahydroisoquinolin-5-yl)benzoate]"
3,1530,"COC(=O)c1cccc(-c2ccc(CNC(=O)C3CC3c3ccccc3)c3c2CCN(C(=O)c2cccc(F)c2)C3)c1 (centres unmarked) [Example 140, methyl 3-(2-(3-fluorobenzoyl)-8-((2-phenylcyclopropanecarboxamido)methyl)-1,2,3,4-tetrahydroisoquinolin-5-yl)benzoate]"
4,1220,"COc1cccc(-c2ccc(CNC(=O)C3CC3c3ccccc3)c3c2CCN(CC(F)(F)F)C3)c1 (centres unmarked) [Example 93, N-((5-(3-methoxyphenyl)-2-(2,2,2-trifluoroethyl)-1,2,3,4-tetrahydroisoquinolin-8-yl)methyl)-2-phenylcyclopropanecarboxamide]"
5,892,"Cc1noc(C2CC2C(=O)NCc2ccc(-c3cccc(OC(F)(F)F)c3)c3c2CN(C(=O)NC2CCS(=O)(=O)C2)CC3)n1 (centres unmarked) [Example 78, N-(1,1-dioxidotetrahydrothiophen-3-yl)-8-((2-(3-methyl-1,2,4-oxadiazol-5-yl)cyclopropanecarboxamido)methyl)-5-(3-(trifluoromethoxy)phenyl)-3,4-dihydroisoquinoline-2(1H)-carboxamide]"
6,887,"COc1cccc(-c2ccc(CNC(=O)[C@@H]3C[C@H]3c3ccccc3)c3c2CCN(C(=O)C(C)(C)C)C3)c1 (relative stereo) [Example 113, (trans)-N-((5-(3-methoxyphenyl)-2-pivaloyl-1,2,3,4-tetrahydroisoquinolin-8-yl)methyl)-2-phenylcyclopropanecarboxamide]"
7,281,"COC(=O)c1cccc(-c2ccc(CNC(=O)C3CC3c3ccccc3)c3c2CCN(C(=O)C(C)C)C3)c1 (centres unmarked) [Example 130, methyl 3-(2-isobutyryl-8-((2-phenylcyclopropanecarboxamido)methyl)-1,2,3,4-tetrahydroisoquinolin-5-yl)benzoate]"
8,238,"COc1cccc(-c2ccc(CNC(=O)[C@@H]3C[C@H]3c3ccccc3)c3c2CCN(C(=O)Nc2cccnc2)C3)c1 (relative stereo) [Example 24, 5-(3-methoxyphenyl)-8-(((trans)-2-phenylcyclopropanecarboxamido)methyl)-N-(pyridin-3-yl)-3,4-dihydroisoquinoline-2(1H)-carboxamide]"
9,59.8,"Cc1noc2ccc(-c3ccc(CNC(=O)[C@@H]4C[C@H]4c4ccccc4)c4c3CCN(C(=O)NC(C)(C)C)C4)cc12 (relative stereo) [Example 27, N-(tert-butyl)-5-(3-methylbenzo[d]isoxazol-5-yl)-8-(((trans)-2-phenylcyclopropanecarboxamido)methyl)-3,4-dihydroisoquinoline-2(1H)-carboxamide]"
